From PubChem BioAssay (NCI)
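Interpolation was linear, between the two tested concentrations surrounding the appropriate level; five concentrations were tested over 48 hours in 96-well plates. The concentration for 50% growth inhibition is given as GI50. TGI: total growth inhibition.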

Tests used:
Experiment in all cases: inhibition of tumour cell growth, NCI panel, 48 h
HOP-62 NSCLC = tested on: HOP-62 NSCLC
BT-549 breast = tested on: BT-549 breast
SF-268 CNS = tested on: SF-268 CNS
MDA-MB-435 = tested on: MDA-MB-435
DU-145 prostate = tested on: DU-145 prostate
OVCAR-4 ovarian = tested on: OVCAR-4 ovarian
HL-60(TB) leukemia = tested on: HL-60(TB) leukemia
A549 NSCLC = tested on: A549 NSCLC
TK-10 renal = tested on: TK-10 renal
OVCAR-3 ovarian = tested on: OVCAR-3 ovarian

Structure (SMILES) | TGI (HOP-62 NSCLC) [µM] | TGI (BT-549 breast) [µM] | TGI (SF-268 CNS) [µM] | TGI (MDA-MB-435) [µM] | TGI (DU-145 prostate) [µM] | TGI (OVCAR-4 ovarian) [µM] | TGI (HL-60(TB) leukemia) [µM] | TGI (A549 NSCLC) [µM] | TGI (TK-10 renal) [µM] | TGI (OVCAR-3 ovarian) [µM] | GI50 (SF-268 CNS) [µM] | GI50 (MDA-MB-435) [µM] | GI50 (DU-145 prostate) [µM] | GI50 (OVCAR-4 ovarian) [µM] | GI50 (HL-60(TB) leukemia) [µM] | GI50 (TK-10 renal) [µM] | GI50 (OVCAR-3 ovarian) [µM]
O=C(c1cccnc1)N1N=C(c2ccc3c(c2)OCO3)CC1(O)c1cc(F)c(Cl)cc1Cl (centres undefined) | 48.7 | 47.9 | 49.8 | > 100 | 59.8 | > 100 | 52.2 | > 100 | > 100 | 26.3 | – | – | – | – | – | – | –
CC(C)(/C=N/O)/[N+]([O-])=C/c1ccccc1 | > 100 | – | > 100 | > 100 | > 100 | > 100 | – | > 100 | > 100 | > 100 | – | – | – | – | – | – | –
CC(C)(CO)NC(=O)c1cccs1 | > 100 | – | > 100 | > 100 | > 100 | > 100 | > 100 | > 100 | > 100 | > 100 | – | – | – | – | – | – | –
O=C(NCCC1CN(S(=O)(=O)C(F)(F)F)c2ccccc21)OCc1ccccc1 (centres undefined) | > 100 | > 100 | > 100 | > 100 | > 100 | > 100 | – | > 100 | – | > 100 | – | – | – | – | – | – | –
CC(=O)OC12OC(C)(C3C(=O)N(c4ccccc4)C(=O)C31)N(c1ccccc1)C2=O (centres undefined) | > 100 | > 100 | > 100 | > 100 | > 100 | > 100 | > 100 | > 100 | > 100 | > 100 | – | – | – | – | – | – | –
CN(C)CCNC(=O)c1cccc2[nH]c(-c3ccc(Cl)cc3)nc12 | 22.5 | – | 38.4 | – | – | 21.2 | 12 | 17.7 | – | 27.7 | – | – | – | – | – | – | –
COc1c(C)c(C/C=C(\C)CCCCO)c(OC)c2ccccc12 | – | > 100 | > 100 | 99.2 | > 100 | > 100 | – | > 100 | > 100 | > 100 | – | – | – | – | – | – | –
CC(=O)Nc1ccc(C(=O)n2[nH]c(C)c(/C=C3\C(=O)C=Cc4ccccc43)c2=O)cc1 | > 100 | – | > 100 | – | – | > 100 | > 100 | > 100 | – | > 100 | – | – | – | – | – | – | –
COc1cc2c(cc1OC)-c1[nH]c3ccc([N+](=O)[O-])cc3c1CC(=O)N2 | 9.81 | > 100 | – | > 100 | > 100 | > 32.1 | 7.31 | > 100 | 8.92 | 1.61 | – | – | – | – | – | – | –
COC(=O)C1Cc2c([nH]c3ccccc23)-c2[nH]c3ccccc3c2CC(NC(C)=O)C(=O)N2CCCC2C(=O)N1 (centres undefined) | > 100 | – | > 100 | > 100 | > 100 | > 100 | – | > 100 | > 100 | > 100 | – | – | – | – | – | – | –
CCN(CCN(CC)C(=O)NC)C(=O)NC | > 100 | > 100 | > 100 | – | > 100 | – | > 100 | > 100 | > 100 | – | – | – | – | – | – | – | –
COc1cccc2c1C(=O)c1c(O)c3c(c(O)c1C2=O)CC(O)(C(C)=O)CC3O (centres undefined) | 11.3 | – | 31.9 | – | – | 19.6 | 26.5 | 23.4 | – | 23.8 | – | – | – | – | – | – | –
Brc1ccc(C[N+]23CN4CN(CN(C4)C2)C3)cc1 | > 100 | – | > 100 | – | – | – | 58.2 | > 100 | > 100 | > 100 | – | – | – | – | – | – | –
COC(=O)C1CCCN1C(=O)OC(C)(C)C (centres undefined) | > 100 | > 100 | > 100 | > 100 | > 100 | > 100 | – | > 100 | > 100 | > 100 | – | – | – | – | – | – | –
CN1CCN(Cn2nc(-c3cc(F)c(Cl)cc3Cl)oc2=S)CC1 | – | – | > 100 | > 100 | > 100 | > 100 | > 100 | – | > 100 | > 100 | 34.2 | 40.5 | 41.4 | 30.9 | 78.5 | 39.3 | 37.4
N#CC(C#N)C1CN2CCC1CC2 (centres undefined) | > 100 | – | > 100 | > 100 | > 100 | > 100 | > 100 | > 100 | > 100 | > 100 | – | – | – | – | – | – | –
CN(C)CCCN=c1c2ccccc2n(C)c2[nH]c(=O)n(C)c(=O)c12 | 29.9 | 36.8 | > 46.6 | 16.8 | > 79 | 36.2 | 6.47 | > 100 | 25.7 | – | – | – | – | – | – | – | –
Cc1cc2c(cc1-c1cc3c(cc1C)C(C(C)C)=C(O)C(=O)/C3=C\Nc1ccccn1)/C(=C/Nc1ccccn1)C(=O)C(O)=C2C(C)C | – | – | > 100 | > 100 | > 100 | > 100 | 99.2 | > 100 | > 100 | > 100 | – | – | – | – | – | – | –
CCC1OC2C(CC=C(C)C)=C3OC(C)(O)C(C)(CC)C(=O)C3=C3OC(=O)C=C1C32 (centres undefined) | – | 49.5 | > 100 | > 100 | > 100 | > 100 | – | > 100 | > 100 | – | – | – | – | – | – | – | –
COC(=O)C1=C(C)NC2=C(C(=O)c3ccccc32)C1c1cn[nH]c1-c1ccccc1 (centres undefined) | > 100 | > 100 | > 100 | > 100 | > 100 | > 100 | > 100 | > 100 | – | > 100 | – | – | – | – | – | – | –
Cc1ccc(S(=O)(=O)NCCCSCCO)cc1 | – | – | > 100 | > 100 | > 100 | > 100 | > 100 | > 100 | > 100 | > 100 | – | – | – | – | – | – | –
O=P(Nc1cccc(Cl)c1)(Oc1ccccc1)N(CCCl)CCCl (centres undefined) | 31.1 | – | 31.4 | – | – | 25.4 | > 100 | 29.2 | 30.6 | 35.7 | – | – | – | – | – | – | –
O=C1C(=O)N(C23CC4CC(CC(C4)C2)C3)C(=S)N1c1ccccc1 | > 100 | – | > 100 | > 100 | > 100 | > 100 | > 100 | > 100 | > 100 | – | – | – | – | – | – | – | –
CCSc1[nH]c(NC(=NC(C)C)NC(=O)c2ccccc2)c(C(N)=O)c1C(N)=O | – | – | > 10 | > 10 | > 10 | > 10 | > 10 | > 10 | > 10 | – | – | – | – | – | – | – | –
Cn1c(=O)oc2cc(C(=S)N3CCCCC3)ccc21 | > 100 | > 100 | > 100 | > 100 | > 100 | – | > 100 | – | > 100 | > 100 | – | – | – | – | – | – | –
